Experimental data reported in patent publication US20070082920A1, “NAD+-dependent DNA ligase inhibitors” (priority 2005, published 2007).

What was measured:
[1] = system: Staphylococcus aureus ATCC 29213; assay: MIC, broth microdilution (CLSI), S. aureus; assay type: cell-based; conditions: lowest concentration inhibiting visual growth
Description: (§1) The compounds of Formulas 1-VIII were evaluated as inhibitors of NAD+-dependent DNA ligase inhibitors. Their antimicrobial activity was evaluated against bacteria using the broth microdilution method as described by Clinical Laboratory Standards Institute (formerly NCCLS). Activity was assessed against the following bacterial strains: Staphylococcus aureus ATCC 29213, Streptococcus pneumoniae ATCC 49619, Escherichia coli ATCC 25922, E. coli CGSC 5633 (ToIC mutant), Haemophilus influenzae ATCC 49766, Streptococcus pyogenes ATCC 19615, Moraxella catterhalis ATCC 25238, Enterococcus faecalis ATCC 29212. The lowest concentration of compound which inhibited visual growth of each bacterium, the minimum inhibitory concentration (MIC), was determined.

[2] = system: Streptococcus pneumoniae ATCC 49619; assay: MIC, broth microdilution (CLSI), S. pneumoniae; assay type: cell-based
Description: as §1

[3] = system: Escherichia coli ATCC 25922; assay: MIC, broth microdilution (CLSI), E. coli ATCC 25922; assay type: cell-based
Description: as §1

[4] = system: E. coli CGSC 5633 (ToIC mutant); assay: MIC, broth microdilution (CLSI), E. coli CGSC 5633; assay type: cell-based, Escherichia coli; parameters: unit not given beside the values
Description: as §1

[5] = system: Enterococcus faecalis ATCC 29212; assay: MIC, broth microdilution (CLSI), E. faecalis; assay type: cell-based; parameters: unit not given here
Description: as §1

[6] = system: Haemophilus influenzae ATCC 49766; assay: MIC, broth microdilution (CLSI), H. influenzae; assay type: cell-based; parameters: unit not given beside the values
Description: as §1

[7] = system: Moraxella catterhalis ATCC 25238; assay: MIC, broth microdilution (CLSI), M. catarrhalis; assay type: cell-based
Description: as §1

[8] = system: Streptococcus pyogenes ATCC 19615; assay: MIC, broth microdilution (CLSI), S. pyogenes; assay type: cell-based
Description: as §1

[9] = Acute toxicity, Alamar blue cell viability, HepG2; assay type: cell-based; conditions: human
Description: (§2) Acute toxicity was assessed against two mammalian cell lines, HepG2 (human hepatocyte) and NIH 3T3 (mouse fibroblast). Cell viability was measured by an in vitro assay using Alamar blue. The concentration of compound which inhibited 50% of the cell growth (LC50) was determined.

[10] = Acute toxicity, Alamar blue cell viability, NIH 3T3; assay type: cell-based; conditions: mouse
Description: as §2

## COc1cc(CN(C)c2nc3nc(N)nc(N)c3c(C)c2Cc2ccccc2)cc(OC)c1 [II-a, 2,4-diamino-5-methyl-6-benzyl-7-[(3,5-dimethoxybenzyl)methylamino]-pyrido[2,3-d]pyrimidine]
[1]
  MIC S. aureus ATCC 29213: 4
[2]
  MIC S. pneumoniae: 0.125
[3]
  MIC E. coli ATCC 25922: >128
[4]
  MIC E. coli CGSC 5633: <0.125
[5]
  MIC E. faecalis: <0.125
[6]
  MIC H. influenzae: >128
[7]
  MIC M. catarrhalis: 4
[8]
  MIC S. pyogenes: 4
[9]
  CC50: 12.8 µM
[10]
  CC50: 5.57 µM

## CCCCc1c(NCc2ccc(F)c(F)c2)nc2nc(N)nc(N)c2c1C [II-d]
[1]
  MIC S. aureus ATCC 29213: 4
[2]
  MIC S. pneumoniae: 1
[3]
  MIC E. coli ATCC 25922: 32
[4]
  MIC E. coli CGSC 5633: <0.125
[5]
  MIC E. faecalis: 2
[6]
  MIC H. influenzae: 16
[7]
  MIC M. catarrhalis: 2
[8]
  MIC S. pyogenes: 2
[9]
  CC50: 17.2 µM
[10]
  CC50: 5.16 µM

## Cc1c(C(C)C)c(NCc2cc(F)cc(C(F)(F)F)c2)nc2nc(N)nc(N)c12 [II-f]
[1]
  MIC S. aureus ATCC 29213: 8
[2]
  MIC S. pneumoniae: 8
[3]
  MIC E. coli ATCC 25922: 128
[5]
  MIC E. faecalis: 2
[6]
  MIC H. influenzae: 32
[7]
  MIC M. catarrhalis: 4
[8]
  MIC S. pyogenes: 8

## Cc1c(C2CCCC2)c(NCc2ccc(F)c(F)c2)nc2nc(N)nc(N)c12 [II-g]
[1]
  MIC S. aureus ATCC 29213: 4
[2]
  MIC S. pneumoniae: 4
[3]
  MIC E. coli ATCC 25922: >128
[4]
  MIC E. coli CGSC 5633: 2
[5]
  MIC E. faecalis: 4
[6]
  MIC H. influenzae: 16
[7]
  MIC M. catarrhalis: 1
[8]
  MIC S. pyogenes: 4
[9]
  CC50: 16.4 µM
[10]
  CC50: 2.67 µM

## COc1cc(CN(C)c2nc3nc(N)nc(N)c3c(C)c2C2CCCC2)cc(OC)c1 [II-h]
[1]
  MIC S. aureus ATCC 29213: 4
[2]
  MIC S. pneumoniae: 0.5
[3]
  MIC E. coli ATCC 25922: 32
[4]
  MIC E. coli CGSC 5633: <0.125
[5]
  MIC E. faecalis: <0.125
[6]
  MIC H. influenzae: 4
[7]
  MIC M. catarrhalis: 1
[8]
  MIC S. pyogenes: 1
[9]
  CC50: 17.5 µM
[10]
  CC50: 3.26 µM

## Cc1cc(NCc2ccc(F)cc2)nc2nc(N)nc(N)c12 [III-a]
[1]
  MIC S. aureus ATCC 29213: 32
[2]
  MIC S. pneumoniae: 64
[3]
  MIC E. coli ATCC 25922: 32
[4]
  MIC E. coli CGSC 5633: 0.25
[5]
  MIC E. faecalis: 4
[6]
  MIC H. influenzae: 2
[7]
  MIC M. catarrhalis: 8
[8]
  MIC S. pyogenes: 2
[9]
  CC50: 24 µM
[10]
  CC50: 8.14 µM

## Cc1cc(NCc2cc(F)cc(C(F)(F)F)c2)nc2nc(N)nc(N)c12 [III-b, 2,4-diamino-5-methyl-7-[(3-fluoro-5-trifluoromethylbenzyl)amino]-pyrido[2,3-d]pyrimidine]
[1]
  MIC S. aureus ATCC 29213: 16
[2]
  MIC S. pneumoniae: 1
[3]
  MIC E. coli ATCC 25922: 16
[4]
  MIC E. coli CGSC 5633: <0.125
[5]
  MIC E. faecalis: 0.5
[6]
  MIC H. influenzae: 32
[7]
  MIC M. catarrhalis: 8
[8]
  MIC S. pyogenes: 4
[9]
  CC50: 20.9 µM
[10]
  CC50: 8.34 µM

## Cc1cc(NCc2ccc(C(F)(F)F)cc2)nc2nc(N)nc(N)c12 [III-c]
[1]
  MIC S. aureus ATCC 29213: 16
[2]
  MIC S. pneumoniae: 4
[3]
  MIC E. coli ATCC 25922: 16
[4]
  MIC E. coli CGSC 5633: 0.25
[5]
  MIC E. faecalis: 4
[6]
  MIC H. influenzae: 16
[7]
  MIC M. catarrhalis: 8
[8]
  MIC S. pyogenes: 4
[9]
  CC50: 22.8 µM
[10]
  CC50: 11.2 µM

## Cc1cc(NCc2cc(C(F)(F)F)cc(C(F)(F)F)c2)nc2nc(N)nc(N)c12 [III-d]
[1]
  MIC S. aureus ATCC 29213: 16
[2]
  MIC S. pneumoniae: 2
[3]
  MIC E. coli ATCC 25922: 16
[4]
  MIC E. coli CGSC 5633: 1
[5]
  MIC E. faecalis: 1
[6]
  MIC H. influenzae: 16
[7]
  MIC M. catarrhalis: 4
[8]
  MIC S. pyogenes: 2
[9]
  CC50: 19.5 µM
[10]
  CC50: 7.72 µM

## Cc1cc(NCc2cccc(C(F)(F)F)c2F)nc2nc(N)nc(N)c12 [III-g]
[1]
  MIC S. aureus ATCC 29213: 16
[2]
  MIC S. pneumoniae: 2
[3]
  MIC E. coli ATCC 25922: 16
[4]
  MIC E. coli CGSC 5633: 0.5
[5]
  MIC E. faecalis: 2
[6]
  MIC H. influenzae: 32
[7]
  MIC M. catarrhalis: 4
[8]
  MIC S. pyogenes: 4

## Cc1cc(NCc2ccc(C(F)(F)F)cc2F)nc2nc(N)nc(N)c12 [III-h]
[1]
  MIC S. aureus ATCC 29213: 16
[2]
  MIC S. pneumoniae: 4
[3]
  MIC E. coli ATCC 25922: 16
[4]
  MIC E. coli CGSC 5633: 0.5
[5]
  MIC E. faecalis: 4
[6]
  MIC H. influenzae: 16
[7]
  MIC M. catarrhalis: 4
[8]
  MIC S. pyogenes: 4

## Cc1cc(NCc2ccc(F)cc2C(F)(F)F)nc2nc(N)nc(N)c12 [III-j]
[1]
  MIC S. aureus ATCC 29213: 16
[2]
  MIC S. pneumoniae: 1
[3]
  MIC E. coli ATCC 25922: 32
[4]
  MIC E. coli CGSC 5633: 0.25
[5]
  MIC E. faecalis: 1
[6]
  MIC H. influenzae: 16
[7]
  MIC M. catarrhalis: 4
[8]
  MIC S. pyogenes: 4

## Cc1cc(NCc2cc(C(F)(F)F)ccc2F)nc2nc(N)nc(N)c12 [III-k]
[1]
  MIC S. aureus ATCC 29213: 16
[2]
  MIC S. pneumoniae: 2
[3]
  MIC E. coli ATCC 25922: 32
[5]
  MIC E. faecalis: 0.5
[6]
  MIC H. influenzae: 32
[7]
  MIC M. catarrhalis: 16
[8]
  MIC S. pyogenes: 16

## Cc1cc(NCc2ccc3c(c2)OCO3)nc2nc(N)nc(N)c12 [III-m]
[1]
  MIC S. aureus ATCC 29213: 64
[2]
  MIC S. pneumoniae: 2
[3]
  MIC E. coli ATCC 25922: 64
[4]
  MIC E. coli CGSC 5633: 0.5
[5]
  MIC E. faecalis: 2
[6]
  MIC H. influenzae: 8
[7]
  MIC M. catarrhalis: 16
[8]
  MIC S. pyogenes: 8

## COc1ccc(CN(C)c2cc(C)c3c(N)nc(N)nc3n2)cc1OC [IV-b]
[1]
  MIC S. aureus ATCC 29213: 64
[2]
  MIC S. pneumoniae: 2
[3]
  MIC E. coli ATCC 25922: 64
[4]
  MIC E. coli CGSC 5633: 0.125
[6]
  MIC H. influenzae: 16
[7]
  MIC M. catarrhalis: 8
[9]
  CC50: > 28.2 µM
[10]
  CC50: 13.2 µM

## Nc1nc(N)c2c3c(c(N4Cc5ccccc5C4)nc2n1)CCCC3 [VII-c]
[1]
  MIC S. aureus ATCC 29213: 16
[2]
  MIC S. pneumoniae: 8
[3]
  MIC E. coli ATCC 25922: >128
[5]
  MIC E. faecalis: 1
[6]
  MIC H. influenzae: >128
[7]
  MIC M. catarrhalis: 4
[8]
  MIC S. pyogenes: 16

## Nc1nc(N)c2c3c(c(NCc4cc(F)cc(F)c4)nc2n1)CCCC3 [VII-d]
[1]
  MIC S. aureus ATCC 29213: 32
[2]
  MIC S. pneumoniae: 8
[3]
  MIC E. coli ATCC 25922: 64
[5]
  MIC E. faecalis: 8
[6]
  MIC H. influenzae: 32
[7]
  MIC M. catarrhalis: 16
[8]
  MIC S. pyogenes: 8

## COc1cc(CN(C)c2nc3nc(N)nc(N)c3c3c2CCCC3)cc(OC)c1 [VII-e]
[1]
  MIC S. aureus ATCC 29213: 32
[2]
  MIC S. pneumoniae: 0.5
[3]
  MIC E. coli ATCC 25922: 64
[4]
  MIC E. coli CGSC 5633: 1
[5]
  MIC E. faecalis: <0.1250
[6]
  MIC H. influenzae: 16
[7]
  MIC M. catarrhalis: 4
[8]
  MIC S. pyogenes: 2
